Experimental data: patent US20250313535A1, “ALPHA 4 BETA 7 INTEGRIN MODULATORS AND USES THEREOF” (DICE MOLECULES SV, INC., priority 2022, published 2025)
Read-outs that look alike come from different tables or passages of the source.

How the values were obtained:
Type in all cases: cell-based
[1] = molecular target: T1, α4β7 integrin (Homo sapiens (Human), UniProt P13612+P26010); experiment: Integrin Adhesion Assay: Protocol 4 (MAdCAM-coated plate, RPMI-8866 cells with stable LOF mutation of the ITGB1 gene); settings: RPMI-8866 cells with stable LOF mutation of the ITGB1 gene; read-out: Mean IC50 α4β7 KO^a
Outline: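 RPMI-8866 cells with CRISPR/Cas9 knockout of ITGB1 (2×10^6/mL) were added to MAdCAM-coated wells with compound (1% DMSO) in HEPES/NaCl buffer with 1 mM MnCl2, 0.1 mM CaCl2 and 1% BSA, then incubated 1 h at 37 °C. After four washes, adherent cells were quantified by CellTiter-Glo luminescence. Percent inhibition versus DMSO and control compound was fitted to 4-parameter curves.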

[2] = molecular target: T1, α4β7 integrin; experiment: Integrin Adhesion Assay: Protocol 1 (MAdCAM-coated plate, RPMI-8866 cells, CellTiter GLO readout)
Outline: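 RPMI-8866 cells (2×10^6 per mL) added with compounds (1% DMSO) to MAdCAM-coated wells blocked in HEPES/NaCl buffer with 1 mM MnCl2, 0.1 mM CaCl2, 1% BSA; 1 h at 37° C, 5% CO2. After four washes, bound cells read by CellTiter GLO luminescence; % inhibition vs DMSO and control wells, 4-parameter fit.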

[3] = molecular target: α4β1 integrin (Homo sapiens (Human), UniProt P05556+P13612); experiment: Integrin Adhesion Assay: Protocol 5 (VCAM-coated plate, RPMI-8866 cells with stable LOF mutation of the ITGB7 gene)
Outline: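 RPMI-8866 B cells with CRISPR/Cas9 ITGB7 knockout (clonal, verified by flow cytometry) adhered to VCAM-coated wells for 1 h at 37° C in HEPES/NaCl buffer with 1 mM MnCl2, 0.1 mM CaCl2, 1% BSA, 1% DMSO. Bound cells quantified by CellTiter-Glo luminescence after washing; % inhibition versus DMSO and control, 4-parameter fit.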

[4] = RPMI-8866 cells with stable LOF mutation of the ITGB7 gene, read-out: Mean IC50 α4β1 KO^b

Sequence of α4β1 integrin (P13612 34-1032): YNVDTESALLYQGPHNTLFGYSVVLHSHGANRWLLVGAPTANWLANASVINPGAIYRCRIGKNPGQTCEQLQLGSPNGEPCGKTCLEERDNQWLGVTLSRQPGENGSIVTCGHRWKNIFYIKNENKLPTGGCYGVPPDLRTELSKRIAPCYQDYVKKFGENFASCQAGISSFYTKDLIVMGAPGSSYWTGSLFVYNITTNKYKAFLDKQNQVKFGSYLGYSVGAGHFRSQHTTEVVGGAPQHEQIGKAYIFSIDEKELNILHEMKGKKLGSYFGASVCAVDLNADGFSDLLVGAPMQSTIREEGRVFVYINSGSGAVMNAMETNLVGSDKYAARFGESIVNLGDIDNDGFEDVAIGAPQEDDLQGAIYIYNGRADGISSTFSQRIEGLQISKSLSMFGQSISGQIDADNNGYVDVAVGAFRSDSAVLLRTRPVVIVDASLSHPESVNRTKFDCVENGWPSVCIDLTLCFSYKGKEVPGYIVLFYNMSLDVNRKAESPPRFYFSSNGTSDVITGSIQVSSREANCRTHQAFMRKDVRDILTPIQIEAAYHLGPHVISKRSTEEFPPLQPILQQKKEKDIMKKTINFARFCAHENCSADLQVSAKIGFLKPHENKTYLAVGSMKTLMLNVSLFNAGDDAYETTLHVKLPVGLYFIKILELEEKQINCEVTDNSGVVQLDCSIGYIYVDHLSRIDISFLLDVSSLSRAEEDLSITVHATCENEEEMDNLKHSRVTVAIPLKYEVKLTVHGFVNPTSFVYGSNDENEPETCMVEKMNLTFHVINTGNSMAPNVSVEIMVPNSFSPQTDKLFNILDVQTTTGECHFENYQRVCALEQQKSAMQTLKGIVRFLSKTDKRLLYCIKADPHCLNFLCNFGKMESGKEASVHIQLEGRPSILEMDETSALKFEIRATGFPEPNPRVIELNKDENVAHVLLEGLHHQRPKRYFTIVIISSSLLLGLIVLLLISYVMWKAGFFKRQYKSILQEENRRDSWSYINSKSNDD
Sequence of α4β1 integrin (P05556 21-798): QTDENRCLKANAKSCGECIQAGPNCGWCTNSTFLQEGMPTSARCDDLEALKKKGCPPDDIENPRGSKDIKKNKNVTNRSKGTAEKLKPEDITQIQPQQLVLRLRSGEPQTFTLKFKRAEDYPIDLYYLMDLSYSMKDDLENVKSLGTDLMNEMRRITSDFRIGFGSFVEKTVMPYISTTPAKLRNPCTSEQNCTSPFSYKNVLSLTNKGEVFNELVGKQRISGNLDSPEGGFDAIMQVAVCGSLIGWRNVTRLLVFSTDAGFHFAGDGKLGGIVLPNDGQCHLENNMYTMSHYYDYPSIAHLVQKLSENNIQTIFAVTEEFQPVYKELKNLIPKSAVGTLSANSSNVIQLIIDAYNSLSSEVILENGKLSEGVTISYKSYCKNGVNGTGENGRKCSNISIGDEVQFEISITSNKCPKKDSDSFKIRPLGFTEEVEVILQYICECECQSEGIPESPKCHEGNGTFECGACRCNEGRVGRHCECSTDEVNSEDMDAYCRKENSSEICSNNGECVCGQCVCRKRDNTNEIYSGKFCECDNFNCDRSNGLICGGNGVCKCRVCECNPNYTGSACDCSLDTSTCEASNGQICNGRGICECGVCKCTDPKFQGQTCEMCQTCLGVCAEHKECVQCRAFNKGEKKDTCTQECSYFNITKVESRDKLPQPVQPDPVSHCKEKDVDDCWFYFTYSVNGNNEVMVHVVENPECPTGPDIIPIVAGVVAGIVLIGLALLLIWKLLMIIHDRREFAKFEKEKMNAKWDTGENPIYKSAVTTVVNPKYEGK
T1 sequence (P13612 34-1032): as the sequence (P13612 34-1032) above
T1 sequence (P26010 20-798): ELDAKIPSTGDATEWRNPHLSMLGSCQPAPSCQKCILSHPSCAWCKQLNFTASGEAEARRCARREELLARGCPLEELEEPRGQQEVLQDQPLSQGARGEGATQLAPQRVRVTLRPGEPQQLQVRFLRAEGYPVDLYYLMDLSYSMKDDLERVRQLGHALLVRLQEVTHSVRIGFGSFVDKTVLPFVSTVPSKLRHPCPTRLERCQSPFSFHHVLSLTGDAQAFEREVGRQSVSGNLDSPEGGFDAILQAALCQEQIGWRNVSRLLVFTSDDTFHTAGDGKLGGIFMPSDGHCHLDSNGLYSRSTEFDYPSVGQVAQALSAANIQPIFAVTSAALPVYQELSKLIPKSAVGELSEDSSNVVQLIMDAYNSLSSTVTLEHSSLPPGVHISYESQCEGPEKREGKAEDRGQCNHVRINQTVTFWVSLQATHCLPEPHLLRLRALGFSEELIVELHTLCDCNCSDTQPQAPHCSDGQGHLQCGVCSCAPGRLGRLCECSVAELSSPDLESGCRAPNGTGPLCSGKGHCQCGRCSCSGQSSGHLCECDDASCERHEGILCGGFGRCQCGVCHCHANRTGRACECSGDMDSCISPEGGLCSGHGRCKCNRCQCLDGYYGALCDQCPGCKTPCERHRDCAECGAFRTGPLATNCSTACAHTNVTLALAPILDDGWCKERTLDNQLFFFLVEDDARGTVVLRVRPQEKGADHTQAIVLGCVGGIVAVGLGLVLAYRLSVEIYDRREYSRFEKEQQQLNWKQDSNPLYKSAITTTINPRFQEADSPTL

Row | IC50 [1] [nM] | IC50 [2] [nM] | IC50 [3, 4] [nM] | IC50 ([3]; Protocol 5, RPMI-8866 cells with LOF mutation of ITGB7, VCAM, read-out: Mean IC50 α4β1 KO) [nM] | IC50 ([2]; protocol not given) [nM] | Compound
1 | 100 to 1000 | 100 to 1000 |  |  |  | Cn1c(=O)c(-c2cccc3c(C[C@H](NC(=O)c4c(F)cc(C5CCCOC5)cc4F)C(=O)O)cccc23)c(C(F)(F)F)c2ccccc21 (stereo partly shown) [Compound 374]
2 | 100 to 1000 | 100 to 1000 |  |  |  | CC[C@@](Cc1cccs1)(C(=O)N[C@@H](Cc1cccc2c(-n3c(=O)ccn(C)c3=O)cccc12)C(=O)O)c1ccccc1 [Compound 292]
3 | 100 to 1000 | 100 to 1000 |  |  |  | Cn1c(=O)c(-c2cccc3c(C[C@H](NC(=O)c4c(F)cc(N5CC(C(F)(F)F)C5)cc4F)C(=O)O)cccc23)c(C(F)(F)F)c2ccccc21 [Compound 388]
4 | 100 to 1000 | 100 to 1000 |  |  |  | COCCc1cc(F)c(C(=O)N[C@@H](Cc2cccc3c(-c4c(C(F)(F)F)c5ccccc5n(C)c4=O)cccc23)C(=O)O)c(F)c1 [Compound 368]
5 | 100 to 1000 | 100 to 1000 |  |  |  | Cc1n[nH]c(C(F)(F)F)c1-c1cc(F)c(C(=O)N[C@@H](Cc2cccc3c(-c4c(C(F)(F)F)c5ccccc5n(C)c4=O)cccc23)C(=O)O)c(F)c1 [Compound 310]
6 | 100 to 1000 | 100 to 1000 |  |  |  | Cn1c(=O)c(-c2cccc3c(C[C@H](NC(=O)c4c(F)cc(C5CCNC5)cc4F)C(=O)O)cccc23)c(C(F)(F)F)c2ccccc21 (stereo partly shown) [Compound 366]
7 | 100 to 1000 | 100 to 1000 |  |  |  | Cn1c(=O)c(-c2cccc3c(C[C@H](NC(=O)c4c(F)ccc(C(F)(F)F)c4F)C(=O)O)cccc23)c(C(F)(F)F)c2ccccc21 [Compound 461]
8 | 100 to 1000 | 100 to 1000 |  |  |  | Cn1c(=O)c(-c2cccc3c(C[C@H](NC(=O)c4c(F)cc(N5CC6(COC6)C5)cc4F)C(=O)O)cccc23)c(C(F)(F)F)c2ccccc21 [Compound 426]
9 | 100 to 1000 | 100 to 1000 |  |  |  | Cn1c(=O)c(-c2cccc3c(C[C@H](NC(=O)c4c(F)cc(C5CCNCC5)cc4F)C(=O)O)cccc23)c(C(F)(F)F)c2ccccc21 [Compound 365]
10 | 100 to 1000 | 100 to 1000 |  |  |  | Cn1c(=O)c(-c2cccc3c(C[C@H](NC(=O)c4c(F)cc(N5CC6C(C5)C6(F)F)cc4F)C(=O)O)cccc23)c(C(F)(F)F)c2ccccc21 (stereo partly shown) [Compound 389]
11 | 100 to 1000 | 100 to 1000 |  |  |  | Cn1c(=O)c(-c2cccc3c(C[C@H](NC(=O)c4c(F)cc(N5CCOc6ccccc65)cc4F)C(=O)O)cccc23)c(C(F)(F)F)c2ccccc21 [Compound 332]
12 |  | 10 to 100 | > 1000 |  |  | CN(C)Cc1cccc2c(-c3cccc4c(C[C@H](NC(=O)C5(C)CCN(CC(F)(F)F)CC5)C(=O)O)cccc34)nccc12 [Compound 420]
13 |  | 10 to 100 | > 1000 |  |  | Cc1ccnc(C)c1-c1ccc(F)c(C(=O)N[C@@H](Cc2cccc3c(-c4c(C(F)(F)F)c5ccccc5n(C)c4=O)cccc23)C(=O)O)c1F [Compound 315]
14 |  | 10 to 100 | > 1000 |  |  | Cn1c(=O)c(-c2cccc3c(C[C@H](NC(=O)c4c(F)cc(N5CCOC[C@@H]5C(F)(F)F)cc4F)C(=O)O)cccc23)c(C(F)(F)F)c2ccccc21 [Compound 317]
15 |  | < 10 | > 1000 |  |  | Cn1c(=O)c(-c2cccc3c(C[C@H](NC(=O)c4c(F)cccc4CN4CCCC4)C(=O)O)cccc23)c(C(F)(F)F)c2ccccc21 [Compound 351]
16 |  | 100 to 1000 | > 1000 |  |  | Cn1c(=O)c(-c2cccc3c(C[C@H](NC(=O)c4c(F)cc(N(C5COC5)C5COC5)cc4F)C(=O)O)cccc23)c(C(F)(F)F)c2ccccc21 [Compound 397]
17 |  | 10 to 100 | > 1000 |  |  | Cn1c(=O)c(-c2cccc3c(C[C@H](NC(=O)C4(C)CCN(C5COC5)CC4)C(=O)O)cccc23)c(C(F)(F)F)c2ccccc21 [Compound 363]
18 |  | < 10 | > 1000 |  |  | CN(C)Cc1cc(-c2cccc3c(C[C@H](NC(=O)c4c(F)cc(N5CCOC[C@@H]5C(F)(F)F)cc4F)C(=O)O)cccc23)c2cnccc2c1 [Compound 445]
19 |  | 10 to 100 | > 1000 |  |  | CN(C)Cc1ccc2c(-c3cccc4c(C[C@H](NC(=O)C5(C)CCN(CC(F)(F)F)CC5)C(=O)O)cccc34)nccc2c1 [Compound 583]
20 |  | > 1000 | > 1000 |  |  | Cn1c(=O)c(-c2cccc3c(C[C@H](NC(=O)[C@]4(C)CC[C@H](N5CCC(F)(F)CC5)CC4)C(=O)O)cccc23)c(C(F)(F)F)c2ccccc21 [Compound 402]
21 |  | < 10 | > 1000 |  |  | CN(C)c1ccc2c(-c3cccc4c(C[C@H](NC(=O)c5c(F)cc(N6CCOC[C@@H]6C(F)(F)F)cc5CN5CCOCC5)C(=O)O)cccc34)nccc2c1 [Compound 299]

Row | IC50 [1] [nM] | IC50 [2] [nM] | IC50 [3, 4] [nM] | IC50 ([3]; Protocol 5, RPMI-8866 cells with LOF mutation of ITGB7, VCAM, read-out: Mean IC50 α4β1 KO) [nM] | IC50 ([2]; protocol not given) [nM] | Compound
22 |  | < 10 | > 1000 |  |  | CN1CCN(Cc2cc(N3CCOC[C@@H]3C(F)(F)F)cc(F)c2C(=O)N[C@@H](Cc2cccc3c(-c4c(C(F)(F)F)c5ccccc5n(C)c4=O)cccc23)C(=O)O)CC1 [Compound 360]
23 |  | 10 to 100 | > 1000 |  |  | Cn1c(=O)c(-c2cccc3c(C[C@H](NC(=O)C4(C)CCN([C@H]5CCOC5)CC4)C(=O)O)cccc23)c(C(F)(F)F)c2ccccc21 [Compound 413]
24 |  | 10 to 100 | > 1000 |  |  | Cn1c(=O)c(-c2cccc3c(C[C@H](NC(=O)c4c(F)cc(NC5COC5)cc4F)C(=O)O)cccc23)c(C(F)(F)F)c2ccccc21 [Compound 378]
25 |  | 10 to 100 | > 1000 |  |  | O=C(N[C@@H](Cc1cccc2c(-c3cccc4ccncc34)cccc12)C(=O)O)c1c(F)cc(N2CCOC[C@@H]2C(F)(F)F)cc1CN1CCC(F)(F)CC1 [Compound 301]
26 |  | 10 to 100 | > 1000 |  |  | Cn1c(=O)c(-c2cccc3c(C[C@H](NC(=O)c4c(F)ccc(-c5cccnc5)c4F)C(=O)O)cccc23)c(C(F)(F)F)c2ccccc21 [Compound 312]
27 |  | < 10 | > 1000 |  |  | Cn1c(=O)c(-c2cccc3c(C[C@H](NC(=O)c4c(F)cc(N5CCOC[C@@H]5C(F)(F)F)cc4CN4CCCC4)C(=O)O)cccc23)c(C(F)(F)F)c2ccccc21 [Compound 359]
28 |  | 10 to 100 | > 1000 |  |  | Cc1n[nH]c(C)c1-c1cc(F)c(C(=O)N[C@@H](Cc2cccc3c(-c4c(C(F)(F)F)c5ccccc5n(C)c4=O)cccc23)C(=O)O)c(F)c1 [Compound 308]
29 |  | 10 to 100 | > 1000 |  |  | O=C(N[C@@H](Cc1cccc2c(-c3cccc4ccncc34)cccc12)C(=O)O)c1c(F)cccc1CN1CCCC1 [Compound 356]
30 |  | < 10 | > 1000 |  |  | CN(C)Cc1ccc2c(-c3cccc4c(C[C@H](NC(=O)[C@]5(C)CC[C@@H](N6CCC(F)(F)CC6)CC5)C(=O)O)cccc34)nccc2c1 [Compound 585]
31 |  | < 10 | > 1000 |  |  | CN(C)C1CCN(Cc2cc(N3CCOC[C@@H]3C(F)(F)F)cc(F)c2C(=O)N[C@@H](Cc2cccc3c(-c4cccc5ccncc45)cccc23)C(=O)O)CC1 [Compound 300]
32 |  | 10 to 100 | > 1000 |  |  | Cn1ccc(C(F)(F)F)c(-c2cccc3c(C[C@H](NC(=O)c4c(F)cc(N5CCOc6ccccc65)cc4F)C(=O)O)cccc23)c1=O [Compound 439]
33 |  | 10 to 100 | > 1000 |  |  | CC[C@@H](Nc1cc(F)c(C(=O)N[C@@H](Cc2cccc3c(-c4c(C(F)(F)F)c5ccccc5n(C)c4=O)cccc23)C(=O)O)c(F)c1)C(F)(F)F [Compound 321]
34 |  | 100 to 1000 | > 1000 |  |  | Cc1[nH]c2ccccc2c1-c1cc(F)c(C(=O)N[C@@H](Cc2cccc3c(-c4c(C(F)(F)F)c5ccccc5n(C)c4=O)cccc23)C(=O)O)c(F)c1 [Compound 327]
35 |  | 10 to 100 | > 1000 |  |  | Cn1c(=O)c(-c2cccc3c(C[C@H](NC(=O)c4c(F)cc(N(CC(F)(F)F)C5COC5)cc4F)C(=O)O)cccc23)c(C(F)(F)F)c2ccccc21 [Compound 380]
36 |  | 10 to 100 | > 1000 |  |  | Cn1c(=O)c(-c2cccc3c(C[C@H](NC(=O)c4c(F)cc(N5CC(C)(C)OC(C)(C)C5)cc4F)C(=O)O)cccc23)c(C(F)(F)F)c2ccccc21 [Compound 331]
37 |  |  |  | 100 to 1000 | < 10 | CN(C)Cc1ccc2c(c1)c(C(F)(F)F)c(-c1cccc3c(C[C@H](NC(=O)c4c(F)cc(N5CCOC[C@@H]5C(F)(F)F)cc4F)C(=O)O)cccc13)c(=O)n2C [Compound 698]
38 |  | > 1000 | > 1000 |  |  | Cn1c(=O)c(-c2cccc3c(C[C@H](NC(=O)c4c(F)cc(C(F)(F)F)cc4F)C(=O)O)cccc23)c(C(F)(F)F)c2ccccc21 [Compound 325]
39 |  | 100 to 1000 | > 1000 |  |  | Cn1c(=O)c(-c2cccc3c(C[C@H](NC(=O)c4c(F)cc(C5CCC(F)(F)CC5)cc4F)C(=O)O)cccc23)c(C(F)(F)F)c2ccccc21 [Compound 381]
40 |  | 10 to 100 | > 1000 |  |  | COCCN(CC(F)(F)F)c1cc(F)c(C(=O)N[C@@H](Cc2cccc3c(-c4c(C(F)(F)F)c5ccccc5n(C)c4=O)cccc23)C(=O)O)c(F)c1 [Compound 385]
41 |  | 10 to 100 | > 1000 |  |  | Cc1cc(N2CCOC[C@@H]2C(F)(F)F)cc(F)c1C(=O)N[C@@H](Cc1cccc2c(-c3c(C(F)(F)F)c4ccccc4n(C)c3=O)cccc12)C(=O)O [Compound 361]
